How the values were obtained:
[1] = biological target: T1, Tyrosine-protein phosphatase non-receptor type 1 (Homo sapiens) (UniProt P18031); assay: Inhibition of recombinant PTP1B catalytic domain (unknown origin) assessed as reduction in pNP formation using pNPP as substrate at 20 ug/ml by absorbance based analysis relative to control; details: dose 20.0 µg/ml
T1 sequence (whole entry): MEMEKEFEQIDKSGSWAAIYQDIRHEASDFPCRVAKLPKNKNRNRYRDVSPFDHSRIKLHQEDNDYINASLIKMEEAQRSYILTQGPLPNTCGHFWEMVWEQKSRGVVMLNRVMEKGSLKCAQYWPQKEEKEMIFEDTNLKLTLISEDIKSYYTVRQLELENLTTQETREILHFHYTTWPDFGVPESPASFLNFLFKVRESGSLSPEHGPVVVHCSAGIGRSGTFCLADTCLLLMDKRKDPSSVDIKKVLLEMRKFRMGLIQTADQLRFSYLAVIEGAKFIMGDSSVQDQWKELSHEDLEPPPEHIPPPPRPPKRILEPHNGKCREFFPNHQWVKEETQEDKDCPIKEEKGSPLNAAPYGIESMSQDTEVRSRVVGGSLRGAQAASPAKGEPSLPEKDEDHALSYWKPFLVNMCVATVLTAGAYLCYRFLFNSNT

[2] = biological target: T2, Tyrosine-protein phosphatase non-receptor type 1 (Homo sapiens, UniProt P18031); assay: Inhibition of recombinant PTP1B catalytic domain (unknown origin) assessed as reduction in pNP formation using pNPP as substrate by absorbance based analysis
T2 sequence (P18031 whole entry): T1 sequence (whole entry)

For `CC(C)=CCc1c(O)cc(-c2cc3ccc(O)cc3o2)cc1O` [MORACIN C], the inhibition [1] was 90.6% and the IC50 [2] was 10.2 µM.
Work on `CC(C)=C[C@H]1Oc2cc(O)ccc2-c2oc3cc(O)ccc3c(=O)c21` yielded an inhibition [1] of 45.4% and an IC50 [2] of no less than 50 µM.
In the case of `CC1(C)Oc2cc3oc(-c4cc(O)cc(O)c4)cc3cc2CC1O` (stereo not drawn) [(+/-)-MORACIN P], the inhibition [1] is reported as 39.1% and the IC50 [2] is reported as no less than 50 µM.
For `CC(C)=CCc1c(-c2ccc(O)cc2O)oc2c3c(cc(O)c2c1=O)OC(C)(C)C=C3` [MORUSIN], the inhibition [1] was 71.5% and the IC50 [2] was 22.1 µM.
`CC(C)=CCC/C(C)=C/Cc1c(O)cc(O)c2c(=O)c(CC=C(C)C)c(-c3ccc(O)cc3O)oc12` was tested, and the inhibition [1] was 95.8% and the IC50 [2] was 5.3 µM.
Work on `CC(C)=CCc1c(O)ccc(C(=O)Oc2cc(/C=C/c3ccc(O)cc3O)cc(O)c2-c2cc(C)cc(-c3ccc(O)cc3O)c2)c1O` yielded an inhibition [1] of 97% and an IC50 [2] of 1.8 µM.
Molecule `CC(C)=CCc1cc(-c2oc3cc(O)cc(O)c3c(=O)c2CC=C(C)C)c(O)cc1O` has an inhibition [1] of 77.6% and an IC50 [2] of 12.5 µM.
`CC(C)=CCc1cc(-c2oc3c(CC=C(C)C)c(O)cc(O)c3c(=O)c2CC=C(C)C)c(O)cc1O` showed an inhibition [1] of 93.3% and an IC50 [2] of 7.7 µM.
`CC(C)=CCc1c(-c2ccc(O)cc2O)oc2cc3c(c(O)c2c1=O)C=CC(C)(C)O3` [CUDRAFLAVONE B] gave an inhibition [1] of 70.9% and an IC50 [2] of 20 µM.
Molecule `CC(C)=CCc1c(O)ccc(C(=O)Oc2cc(-c3cc4ccc(O)cc4o3)cc(O)c2-c2cc(C)cc(-c3ccc(O)cc3O)c2)c1O` has an inhibition [1] of 99.2% and an IC50 [2] of 1.3 µM.
